Measurements reported in patent publication US10076572B2, “Photodynamic therapy for treating Clostridium difficile infection using chitosan and tetracycline” (priority 2015, dated 2018).
Where “and” joins values, the source holds several entries; their conditions need not be identical. Equal values may be shown once.

What was measured:
C. difficile [1] = assay: Synergistic photodynamic bactericidal activity (PDT with UVA), colony-forming units; type: cell-based, Clostridium difficile (KCTC 5009); details: for Log10 CFU/mL (mean ± SD, n = 3): UVA
Procedure: The standard strain of Clostridium difficile was provided by Korean Collection for Type Cultures (C. difficile, KCTC 5009). C. difficile was cultured at 37° C. in a standard anaerobic condition on Clostridia reinforced agar (Oxoid, Cambridge, CB5 8BZ, UK).
Tetracycline, chitosan (low molecular weight), and ethidium bromide monoazide (EMA) were purchased from Sigma (Sigma Chemical Co., St. Louis, Mo.). A stock solution of tetracycline was prepared in water at a concentration of 10 mg/mL and stored for a maximum of 2 weeks at 4° C. in the dark before use. A stock solution of chitosan (1% w/v) was prepared in 1% acetic acid and used within one month. The light source for UVA was lamp (315-400 nm) for treatment of psoriasis (UV801KL, Waldmann Medical division, Germany). The irradiation procedure was performed in a dark and closed box and C. difficile containing plates were placed at a distance of 10 cm from the light source.
Based on a modification of the method of Tegos (G. P. Tegos, M. R. Hamblin. Phenothiazinium bactericidal photosensitizers are substrates of bacterial multidrug resistance pumps. Antimicrob. Agents Chemother. 50 (2006)196-203.), C. difficile that had been stored at −70° C. was cultured in Clostridial agar medium for 3 days.
After successive subcultures for two days, the cells were collected and suspended in PBS at a concentration of 10^8 cells/mL. The cell suspension was exposed to tetracycline alone at concentrations of 0.05 mg/mL, 0.1 mg/mL, 0.5 mg/mL and 1 mg/mL, or to 0.0125% chitosan containing TC at a concentration of 0.05 mg/mL, 0.1 mg/mL, 0.5 mg/mL and 1 mg/mL for 30 min.
After samples were washed twice with PBS, the bacterial cell suspension was dispensed at a volume of 1000 μL in a plate for irradiation for 5, 10, 20 and 30 min. After irradiation, cells were serially diluted tenfold in PBS to give dilutions of 10^−1 to 10^−8 of the original concentrations, and a 10 μL aliquot of each dilution was spotted on a Clostridial agar plate. After 2 days incubation, the colonies were counted to obtain the number of colony-forming units. C. difficile without treatment with TC, chitosan and light served as the control.

C. difficile [2] = assay: EMA-qPCR analysis of C. difficile DNA (16S rRNA gene) to evaluate cell death and DNA damage; type: cell-based, Clostridium difficile (KCTC 5009); details: UVA + TC (0.5 mg/mL), UVA irradiation 30 min
[3] = TC 0.05 mg/mL+UVA, after 30 min irradiation
[4] = TC 0.1 mg/mL+UVA, after 30 min irradiation

## CN(C)[C@@H]1C(O)=C(C(N)=O)C(=O)[C@@]2(O)C(O)=C3C(=O)c4c(O)cccc4[C@@](C)(O)[C@H]3C[C@@H]12 [TC, tetracycline]
C. difficile [1]; 0.05 mg/mL TC, irradiation 0 min
  Log10 CFU/mL (mean ± SD, n = 3): 8.11 ± 0.48 Log10 CFU/mL
C. difficile [1]; 0.05 mg/mL TC, irradiation 5 min
  Log10 CFU/mL (mean ± SD, n = 3): 8.11 ± 0.78 Log10 CFU/mL
C. difficile [1]; 0.05 mg/mL TC, irradiation 10 min
  Log10 CFU/mL (mean ± SD, n = 3): 8.13 ± 0.40 Log10 CFU/mL
C. difficile [1]; 0.05 mg/mL TC, irradiation 20 min
  Log10 CFU/mL (mean ± SD, n = 3): 8.11 ± 0.67 Log10 CFU/mL
C. difficile [1]; 0.05 mg/mL TC, irradiation 30 min
  Log10 CFU/mL (mean ± SD, n = 3): 7.14 ± 0.33 Log10 CFU/mL
C. difficile [1]; 0.1 mg/mL TC, irradiation 0 min
  Log10 CFU/mL (mean ± SD, n = 3): 8.03 ± 0.39 Log10 CFU/mL
C. difficile [1]; 0.1 mg/mL TC, irradiation 5 min
  Log10 CFU/mL (mean ± SD, n = 3): 8.11 ± 0.11 Log10 CFU/mL
C. difficile [1]; 0.1 mg/mL TC, irradiation 10 min
  Log10 CFU/mL (mean ± SD, n = 3): 8.13 ± 0.53 Log10 CFU/mL
C. difficile [1]; 0.1 mg/mL TC, irradiation 20 min
  Log10 CFU/mL (mean ± SD, n = 3): 8.11 ± 0.21 Log10 CFU/mL
C. difficile [1]; 0.1 mg/mL TC, irradiation 30 min
  Log10 CFU/mL (mean ± SD, n = 3): 7.12 ± 0.38 Log10 CFU/mL
C. difficile [1]; 0.5 mg/mL TC, irradiation 0 min
  Log10 CFU/mL (mean ± SD, n = 3): 8.03 ± 0.48 Log10 CFU/mL
C. difficile [1]; 0.5 mg/mL TC, irradiation 5 min
  Log10 CFU/mL (mean ± SD, n = 3): 6.02 ± 0.76 Log10 CFU/mL
C. difficile [1]; 0.5 mg/mL TC, irradiation 10 min
  Log10 CFU/mL (mean ± SD, n = 3): 5.12 ± 0.10 Log10 CFU/mL
C. difficile [1]; 0.5 mg/mL TC, irradiation 20 min
  Log10 CFU/mL (mean ± SD, n = 3): 5.11 ± 0.27 Log10 CFU/mL
C. difficile [1]; 0.5 mg/mL TC, irradiation 30 min
  Log10 CFU/mL (mean ± SD, n = 3): 5.11 ± 0.23 Log10 CFU/mL
C. difficile [1]; 1 mg/mL TC, irradiation 0 min
  Log10 CFU/mL (mean ± SD, n = 3): 8.03 ± 0.39 Log10 CFU/mL
C. difficile [1]; 1 mg/mL TC, irradiation 5 min
  Log10 CFU/mL (mean ± SD, n = 3): 5.21 ± 0.11 Log10 CFU/mL
C. difficile [1]; 1 mg/mL TC, irradiation 10 min
  Log10 CFU/mL (mean ± SD, n = 3): 4.11 ± 0.23 Log10 CFU/mL
C. difficile [1]; 1 mg/mL TC, irradiation 20 min
  Log10 CFU/mL (mean ± SD, n = 3): 4.11 ± 0.21 Log10 CFU/mL
C. difficile [1]; 1 mg/mL TC, irradiation 30 min
  Log10 CFU/mL (mean ± SD, n = 3): 0 Log10 CFU/mL
C. difficile [1]; [3]
  decrease of viable cells: 10 times
  viable cells: 1.12×10^7
C. difficile [1]; [4]
  decrease of viable cells: 10 times
  viable cells: 1.14×10^7
C. difficile [1]; TC 0.5 mg/mL+UVA, after 5 min irradiation
  viable cells: 1.10×10^6
C. difficile [1]; TC 0.5 mg/mL+UVA, after 10 min irradiation
  viable cells: 1.12×10^5
C. difficile [1]; TC 0.5 mg/mL+UVA, after 20 min irradiation
  viable cells: 1.11×10^5
C. difficile [1]; TC 0.5 mg/mL+UVA, after 30 min irradiation
  viable cells: 1.13×10^5
C. difficile [1]; TC 1.0 mg/mL+UVA, after 5 min irradiation
  viable cells: 1.21×10^5
C. difficile [1]; TC 1.0 mg/mL+UVA, after 10 min irradiation
  viable cells: 1.11×10^4
C. difficile [1]; TC 1.0 mg/mL+UVA, after 20 min irradiation
  viable cells: 1.13×10^4
C. difficile [1]; TC 1.0 mg/mL+UVA, after 30 min irradiation
  viable cells: 0
C. difficile [2]
  Ct value (EMA-qPCR, 16S rRNA): 23.026±0.101 and 23.03 ± 0.101
